Laboratory results as given in patent US20240228491A1, “METHIONINE ADENOSYLTRANSFERASE INHIBITOR, PREPARATION METHOD THEREFOR AND APPLICATION THEREOF” (SCINNOHUB PHARMACEUTICAL CO., LTD., priority 2021, published 2024).
pIC50: −log10 of the molar value. Read-outs that look alike come from different tables or passages of the source.

How the values were obtained:
[1] = In vivo pharmacokinetic study in ICR mice; details: plasma; for AUC(0-t): read-out: Area under curve AUC(0-t); for Cmax: read-out: Maximal concentration Cmax
Description: Species: ICR mice, SPF grade. Source: Shanghai Xipuer-Bikai Laboratory Animal Co., Ltd. Number: 3 mice per dosage form.
(§1) 2.1 An appropriate amount of the test sample was accurately weighed, into which 5% DMSO, 10% polyethylene glycol-15 hydroxystearate, 85% normal saline (all in volume percent) were added sequentially, and were fully mixed via vortex or ultrasound, to obtain the dosing solution with a test sample concentration of 0.4 mg/mL for intravenous administration.
as §1, with “2.2” for “2.1”, “1” for “0.4”, “oral gavage” for “intravenous”
Weighing was performed before administration, and the administration amount was calculated according to the body weight. The drug was administered orally by gavage or intravenously.
Before and 0.083 h, 0.25 h, 0.5 h, 1 h, 2 h, 4 h, 6 h, 8 h, 24 h after administration.
Blood was collected via submandibular vein or other suitable means, and approximately 0.03 mL per sample was collected via anticoagulation with heparin sodium. Blood samples were placed on ice after collection and centrifuged to separate plasma within 1 h (centrifugation conditions: centrifugal force of 6800 g, 6 min, 2-8° C.). The collected plasma samples were stored in a −80° C. refrigerator before analysis, and the remaining plasma samples continued to be stored in a −80° C. refrigerator for temporary storage after analysis.
When plot the plasma concentration-time curve according to the detected plasma concentration of the test substance, BLQ (Beneath Limit of Quantification) was recorded as 0. When calculating pharmacokinetic parameters, the concentration before administration was calculated as 0; BLQ (including “No peak”) before Cmax was calculated as 0; BLQ (including “No peak”) after Cmax was not involved in the calculation. Pharmacokinetic parameters, such as AUC(0-t), T1/2, Cmax, etc., were calculated by WinNonlin using the plasma concentration data at different time points.

KP-4 cells = experiment: Inhibitory activity test of KP-4 cells; type: cell-based; details: Homo sapiens, 144 h incubation, read-out: KP-4 cell inhibitory activity IC50
Description: On day 1, cell seeding: after digestion of the cells with trypsin, the cells were resuspended to 1*10^4/mL with RPMI1640 complete medium (HyClone Company, Cat. No. SH30809.01) supplemented with 10% FBS (Gibco, 10099141C), mixed evenly, and added into the 96-well plate at 100 μL/well. The plate was put back to the incubator for the adherent growth of cells. On day 2, the addition of the compounds to be tested: 100 μL of the complete medium containing the compounds (the concentration of the compound in the medium was formulated as follows: 3-fold gradient dilution from 60 μM, 10 concentration gradients in total) was added, incubated for 144 hours at 37° C., 5% CO2. On day 8, the cell culture plates were taken out from incubator and equilibrated to room temperature, excess medium was pipetted from the wells so that 50 μL of supernatant was retained, and 50 μL of CellCounting-Lite 2.0 (Nanjing Vazyme Biotech Co., Ltd., Cat. No. DD1101) reagent was added per well, and the cells were fully lysed by shaking at room temperature for 10 min, and incubated for 5 min to detect the fluorescence intensity.
% Inhibition=100−(signal of the well with the compound to be tested−signal of the well with only medium and free of cells)/(signal of the well with cells but without addition of the compound−signal of the well with only medium and free of cells)×100.
The log value of concentration was used as the X-axis and % Inhibition was used as the Y-axis, so as to fit the dose-effect curve and calculate the IC50 value using nonlinear regression (dose response−variable slope) in the analysis software GraphPad Prism 8.

Apparent clearance rate Cl ([1]; IV 2 mg/kg): 1.03 mL/min/kg
AUC(0-t) ([1]; mouse, IV 2 mg/kg): 31.7 µg·h/mL
half-life ([1]; mouse, IV 2 mg/kg, read-out: Half life T1/2 (converted)): 5.53 h
Cmax ([1]; mouse, IV 2 mg/kg): 3540 ng/mL
AUC(0-t) ([1]; mouse, PO 10 mg/kg): 211 µg·h/mL
half-life ([1]; mouse, PO 10 mg/kg, read-out: Half life t1/2 (converted)): 9.32 h
Cmax ([1]; mouse, PO 10 mg/kg): 18100 ng/mL
bioavailability ([1]; mouse, PO 10 mg/kg vs IV 2 mg/kg, read-out: Bioavailability F %): 133%
pIC50 (KP-4 cells): 6.44
SMILES: Nc1c(-c2ccc3nccnc3c2)c(=O)n(-c2ccc(Cl)cc2)c2nc(C(F)(F)F)ccc12 [Example 36]
